Each structure is given as a SMILES string.

The nature of series [1]: Free flow preservation (caking) of OPA formulations on exposure to temperature and humidity. The format is physicochemical. The note with it: for Caking tendency: 0 wt. % of anti-caking agent; for Time to caking: untreated. An excerpt:
Samples of OPA containing 0.01-0.1% water were ground and mixed with various additives at levels of 0.2% to 5%. The samples were mixed on high-speed rollers for one hour followed by exposure to various temperatures and levels of humidity. The samples were examined at various time intervals for flow properties. Complete caking was defined as all sample stuck together in one solid block. For ease of interpretation and comparison, the following notation was used: 1) Formulations that caked in under two weeks were assigned one star (*); 2). Formulations that caked in two to four weeks were assigned two stars; 3) Formulations that caked in four to eight weeks were assigned three stars; 4) Formulations stable (flowable) over eight weeks were assigned four stars.

Series [2] in a line: Flowability of OPA after one hour on high-speed rollers. The format is physicochemical. The note with it: granular OPA in capped 100 ml jar, no additive. The procedure: Ortho-phthalic aldehyde (13.04 g, granular) was placed in a 100 ml jar. The jar was tightly capped and placed on high-speed rollers for one hour. […] The lid was removed and the sample was placed in a humidity oven set at 40° C. and 90% RH (relative humidity). After 4 hours of exposure the sample had no flow.
Ortho-phthalic aldehyde (10.04 g, granular) was placed in a 100 ml jar. The jar was tightly capped and placed on high-speed rollers for one hour. […] The lid was removed and the sample was placed in a humidity oven set at 30° C. and 90% RH (relative humidity).
Ortho-phthalic addehyde (12.04 g, granular) was placed in a 100 ml jar. The jar was tightly capped and placed on high-speed rollers for one hour. […] The lid was removed and the sample was placed in a humidity oven set at 40° C. and 70% RH (relative humidity).

With `O=Cc1ccccc1C=O` [Control, ortho-phthalic aldehyde], the Caking tendency entry in series [1] (22.5° C. and 65% RH) was “* (Formulations that caked in under two weeks were assigned one star (*))”; in series [1] (30° C. and 90% RH), “* (Formulations that caked in under two weeks were assigned one star (*))”; in series [1] (40° C. and 70% RH), “* (Formulations that caked in under two weeks were assigned one star (*))”; in series [1] (40° C. and 90% RH) it was “* (Formulations that caked in under two weeks were assigned one star (*))”. The Time to caking entry was “one day” in series [1] (30° C. and 90% RH); “half a day” in series [1] (40° C. and 90% RH). For the same compound, the Flow after exposure result in series [1] (4 hours at 40° C. and 70% RH) was “no free flow”; in series [1] (4 hours at 40° C. and 90% RH), “no flow”; in series [1] (24 hours at 30° C. and 90% RH), “no free flow”. For the same compound, in series [2], the “Flowability after one hour on high-speed rollers” value was “very poor flowability”.

(Values after US20040109897A1, “Free flowing solid antimicrobial composition” (priority 2002, published 2004).)
